# Key:
# [1] = system: female spontaneously hypertensive (SHR) rats; experiment: Cyclosporine A-induced nephrotoxicity, 14 days dosing, serum BUN (Example 63); assay type: in vivo
# Experimental: All experiments were carried out using female spontaneously hypertensive (SHR) rats, weight range 160-200 gm, obtained from Taconic Farms. […] Three thromboxane antagonists have been studied. […] Thromboxane antagonists have been administered as the sodium salt dissolved in saline, the sodium salt dissolved in 0.1% NaHCO3 or the free acid suspended in 1% Methocel.
# [2] = system: female spontaneously hypertensive (SHR) rats; experiment: Cyclosporine A-induced nephrotoxicity, 5 week study, serum BUN, serum creatinine, creatinine clearance (Example 64); details: for Mean Serum BUN Values: Compound 63 (10 mg/kg/day) and Cyclosporine A; for Mean Serum Creatinine Levels: Compound 63 (10 mg/kg/day) and Cyclosporine
# Experimental: Experiments were carried out using groups of 6 female spontaneously hypertensive (SHR) rats, weight range 166-194 gm, obtained form Taconic Farms. […] At weekly intervals form 2 weeks onwards, animals were placed in individual metabolism cages and 24 hr urin samples collected, the volume measured and the creatinine levels determined (Lakeshore Diagnostic Laboratories). Creatinine clearance per rat was calculated from the formula: [formula] where Ucr = concentration of creatine in urine • Per = concentration of creatinine in plasma • V = volume of urine flow in ml/min
# After removal from the metabolism cage, a blood sample was taken from each rat for determination of serum BUN and creatinine (Lakeshore Diagnostic Laboratories). In a preliminary study, groups of 8 rats were dosed as above for 2 weeks only and serum samples removed for determination of BUN and creatinine as above.
# [3] = system: female spontaneously hypertensive (SHR) rats; experiment: Cyclosporine A-induced nephrotoxicity, pilot study, 2 weeks dosing, serum BUN and creatinine (Example 64); assay type: in vivo; details: for Serum BUN / Serum Creatinine: 2 weeks, means ± S.E.M. (n = 8)
# rats = details: cyclosporine A nephrotoxicity model, Penico et al. 1986; cited from earlier work
# [4] = Cyclosporine A and Compound 63 3 mg/kg/day
# [5] = Cyclosporine A and Compound 63 10 mg/kg/day
smiles,measurement,setting,value
"O=C(O)CC1CCCc2c1n(Cc1ccc(Cl)cc1)c1ccc(F)cc21 (racemic) [Compound 1, 9-p-chlorobenzyl-6-fluoro-1,2,3,4-tetrahydracarbazol-1-yl-acetic acid]",inhibition of the increase in serum BUN,"[1]; Table 1 (Experiment 1), 3 mg/kg/day in saline with cyclosporine A",significant inhibition
"O=C(O)CC1CCCc2c1n(Cc1ccc(Cl)cc1)c1c(F)cc(F)cc21 (single isomer, unassigned; (-)) [Compound 37, (-)-9 p-Chlorobenzyl-6,8-difluoro-1,2,3,4-tetrahydrocarbazol-1-yl-acetic acid]",inhibition of the rise in serum BUN,"[1]; both doses (3 and 10 mg/kg/day), suspension of the free acid, with cyclosporine A",significant inhibition
"CS(=O)(=O)c1ccc(Cn2c3c(c4cc(F)cc(F)c42)CCCC3CC(=O)O)cc1 (single isomer, unassigned) [Compound 63]",Mean Serum BUN Values,[2]; week 2,26.4 ± 0.9 mg/dL
same,Mean Serum BUN Values,[2]; week 3,22.3 ± 1.7 mg/dL
same,Mean Serum BUN Values,[2]; week 4,24.0 ± 1.4 mg/dL
same,Mean Serum BUN Values,[2]; week 5,21.0 ± 1.1 mg/dL
same,Mean Serum Creatinine Levels,[2]; week 2,0.51 ± 0.03 mg/dL
same,Mean Serum Creatinine Levels,[2]; week 3,0.44 ± 0.01 mg/dL
same,Mean Serum Creatinine Levels,[2]; week 4,0.54 ± 0.02 mg/dL
same,Mean Serum Creatinine Levels,[2]; week 5,0.42 ± 0.01 mg/dL
same,"prevention of cyclosporine A-induced changes (serum BUN, creatinine clearance)","[2]; cotreatment with Compound 63 (10 mg/kg/day), 5 week study",prevented
same,cyclosporine A-induced nephrotoxicity,[2]; overall conclusion of Example 64,inhibits
same,"creatinine clearance, Compound 63 and cyclosporine A compared to cyclosporine A alone",[2]; week 3,significantly different
same,"creatinine clearance, Compound 63 and cyclosporine A compared to cyclosporine A alone","[2]; week 5, p = 0.07",just failed to reach statistical significance
same,"serum BUN, Compound 63 and cyclosporine A compared to cyclosporine A alone",[2]; weeks 3 and 5,significantly different
same,reduction of the increase in serum BUN,"[3]; 3 or 10 mg/kg/day with cyclosporine A, pilot study",significantly reduced the increase in serum BUN to control levels
same,Serum BUN,[3]; [4],20.8 ± 1.0 mg/dL
same,Serum Creatinine,[3]; [4],0.64 ± 0.02 mg/dL
same,Serum BUN,[3]; [5],22.2 ± 0.7 mg/dL
same,Serum Creatinine,[3]; [5],0.65 ± 0.04 mg/dL
same,reduction of the increase in serum creatinine,"[3]; higher dose (10 mg/kg/day) with cyclosporine A, pilot study, p = 0.07",failed to reach statistical significance
same,reduction of the increase in serum creatinine,"[3]; lower dose (3 mg/kg/day) with cyclosporine A, pilot study",significantly reduced the increase in serum creatinine
"CS(=O)(=O)c1ccc(Cn2c3c(c4cc(F)cc(F)c42)CCCC3CC(=O)O)cc1 (single isomer, unassigned; (-)) [Compound 50, (-)9-p-Methylsulfonylbenzyl-6,8-difluoro-1,2,3,4-tetrahydrocarbazol-1-yl acetic acid]",effects on cyclosporine A-induced rises in serum BUN,"[1]; both 3 and 10 mg/kg/day, suspension of the free acid (Table 4)",effective
"Cc1c(Cn2ccnc2)c2ccccc2n1CCC(=O)O [Uk-38,485]",glomerular filtration rate,rats,increased
same,urinary TxB2,rats,reduced
